Data reported in patent publication US20220106564A1, “COMPOSITION AND KIT FOR DIFFERENTIATION OF STEM CELLS INTO NEURAL CREST STEM CELLS, INCLUDING INHIBITOR OF TGF-BETA I RECEPTOR AND BMP INHIBITOR, AND METHOD USING SAME” (CHA UNIVERSITY INDUSTRY-ACADEMIC COOPERATION FOUNDATION, priority 2019, published 2022).

Key:
[1] = test system: H9 human embryonic stem cells (hESCs); test: Embryoid body count after suspension culture of H9 hESCs; format: cell-based; conditions: increasing concentrations of DMH1 in EB medium with 10 μM SB431542; suspension culture about 4 days; p<0.001
Description: Colonies obtained by culturing H9 human embryonic stem cells (hESCs) (WiCell Research Institute, Inc. Madison, Wis., U.S.A.) in a culture medium were dissociated into single cells using accutase (Life Technologies). The cells dissociated into single cells were seeded in a culture plate coated with a protein such as vitronectin (VTN) (vitronectin XF, STEMCELL Technologies), […]-521, Thermo Fisher Scientific Inc., Waltham, Mass., USA), fibronectin (Thermo Fisher Scientific Inc.), or MatrigelTM (StemCell Technologies, Inc.). An embryonic stem cell (ESC) culture medium was added to the seeded cells to perform undifferentiation culture. As the ESC culture medium, Essential 8 (E8) medium (StemCell Technologies Inc.), TeSR2 medium (StemCell Technologies Inc), StemMACS (Miltenyi Biotec, Bergisch Gladbach, Germany), etc. was used. […] The number of round-shaped embryoid bodies were counted, and the number of embryoid bodies per unit area (embryoid body/cm^2) according to DMH1 concentrations is shown in FIG. 1D (***: p<0.001).

[2] = test system: H9 human embryonic stem cells (hESCs); test: Flow cytometry for P75 (neural crest stem cell marker) in cultured cells; format: cell-based; conditions: suspension about 3 days + adherent about 4 days (FIG. 3E)
Description: The obtained colonies were finely chopped and suspension-cultured under conditions of 37° C. and 5% CO2 in an EB medium containing 10 μM of SB431542 (GlaxoSmithKline: GSK) as a TGF-β I receptor inhibitor and 0.5 μM to 1 μM of dorsomorphin homolog 1 (DMH1) (Tocris Bioscience, USA) or dorsomorphin (Tocris Bioscience, […]). EB medium contained DMEM/F12 (Life Technologies), 20%(v/v) Knockout serum replacement (KSR, Invitrogen), lx non-essential amino acids (Invitrogen), 0.1 mM 13-mercaptoethanol (Invitrogen), and lx penicillin/streptomycin (Invitrogen). As a negative control, dimethyl sulfoxide (DMSO) (Sigma-Aldrich) was used instead of the drug. […] To analyze a proportion of cells expressing P75 protein which is a neural crest stem cell (NCSC) marker, or SOX1 which is a neural progenitor cell (NPC) marker, immunostaining was performed using phycoerythrin (PE)-labeled anti-P75 monoclonal antibody (1:50 dilution) (Miltenyi Biotec), and phycoerythrin (PE)-labeled anti-Sox1 monoclonal antibody (1:100 dilution) (BD Biosciences). The immunostained cells were subjected to flow cytometry using a BD FACSCalibur flow cytometer (BD Biosciences, Sparks, Md., USA). The results of flow cytometry are shown in FIGS. 2A and 2B (FIG. 2A: a graph of P75 flow cytometry, FIG. 2B: a graph of SOX1 flow cytometry). Cells suspension-cultured for about 3 days and adherent-cultured for about 4 days were subjected to P75 flow cytometry, as described in Example 1.2, and the results of flow cytometry are shown in FIG. 3E (upper: SB431542 and DMH1, lower: SB431542 and dorsomorphin).

Structure (SMILES) | number of embryoid bodies per unit area [1] | proportion of P75-expressing cells ([2]; 0.5 μM to 1 μM DMH1 + 10 μM SB431542) [%] | proportion of P75-expressing cells ([2]; 2.5 μM DMH1 + 10 μM SB431542) | proportion of P75-expressing cells ([2]; 0.5 μM BMP inhibitor in EB medium containing 10 μM SB431542 and dorsomorphin) [%]
CC(C)Oc1ccc(-c2cnc3c(-c4ccnc5ccccc45)cnn3c2)cc1 [DMH1, 4-[6-[4-(1-Methylethoxy)phenyl]pyrazolo[1,5-a]pyrimidin-3-yl]-quinoline] | significantly decreased | ≥ 69.8 | about 28.9% | –
c1cc(-c2cnn3cc(-c4ccc(OCCN5CCCCC5)cc4)cnc23)ccn1 [dorsomorphin, 6-[4-[2-(1-Piperidinyl)pethoxy]phenyl]-3-(4-pyridinyl)-pyrazolo[1,5-a]pyrimidine] | – | – | – | ≥ 83.2
